Drawing on ChEMBL document CHEMBL5052819, “Peptide targeting gip and glp-2 receptors for treating bone disorders” (2020), this text covers Activity and IC50 for three compounds.

Calls of active or inactive are those of the source. No cut-off for these calls is given here.

One may read the IC50 as the concentration that gives 50% inhibition.

The subject of data set [1] is Mus musculus. Kind of data set: Anti-osteoporosis activity in ovariectomized BALB/c mouse at 100 microg/kg, iv assessed as increase in mineral crystallinity heterogeneity. Format: functional. The note with it: dose 100 µg/kg.
Data set [2] relates to Mus musculus. Kind of data set: Anti-osteoporosis activity in ovariectomized BALB/c mouse at 100 microg/kg, iv assessed as increase in trabecular number. Format: functional. The note with it: dose 100 µg/kg.
Data set [3] concerns Mus musculus. Kind of data set: Anti-osteoporosis activity in ovariectomized BALB/c mouse at 100 microg/kg, iv assessed as effect on cortical bone microarchitecture. It is filed as functional, organism-based. As to conditions: dose 100.0 µg/kg.
For data set [4], the system named is Mus musculus. Description: Anti-osteoporosis activity in ovariectomized BALB/c mouse at 100 microg/kg, iv assessed as increase in trabecular bone mass. Format: functional. The note with it: dose 100 µg/kg.
Data set [5] can be described thus: Toxicity in ovariectomized BALB/c mouse assessed as effect on body mass at 100 microg/kg, iv. The note with it: in vivo, 0.1 mg/kg, dose 100 µg/kg.
The subject of data set [6] is Mus musculus. Kind of data set: Anti-osteoporosis activity in ovariectomized BALB/c mouse at 100 microg/kg, iv assessed as reduction in trabecular bone stiffness. Format: functional, organism-based. The note with it: dose 100.0 µg/kg.
Data set [7] concerns RAW264.7. Description: Inhibition of RANKL-induced osteoclastogenesis in mouse RAW264.7 cells measured after 110 hrs by TRAcP staining based assay. The note with it: RAW264.7, 110 h. Format: functional, cell-based.
Data set [8] concerns Mus musculus. Description: Anti-osteoporosis activity in ovariectomized BALB/c mouse at 25 nmol/kg/day, sc assessed as increase in work-to-fracture of cortical bone. Format: functional.
Data set [9] deals with Mus musculus. Kind of data set: Anti-osteoporosis activity in ovariectomized BALB/c mouse at 25 nmol/kg/day, sc assessed as increase in post-yield displacement of cortical bone. Format: functional.
Data set [10] relates to Mus musculus. Kind of data set: Anti-osteoporosis activity in ovariectomized BALB/c mouse at 25 nmol/kg, sc assessed as decrease in mean phosphate/amide ratio. Format: functional. On the set-up: scale not given: the % may be the effect or the level left.
The subject of data set [11] is Mus musculus. Kind of data set: Anti-osteoporosis activity in ovariectomized BALB/c mouse at 25 nmol/kg, sc assessed as increase in acid phosphate content heterogeneity. Format: functional.
Data set [12] deals with Mus musculus. Description: Anti-osteoporosis activity in ovariectomized BALB/c mouse at 25 nmol/kg, sc assessed as increase in collagen maturity. It is filed as functional.
The nature of data set [13]: Toxicity in ovariectomized BALB/c mouse at 25 nmol/kg, sc assessed as effect on morphological changes in pancreas. It is filed as organism-based. As to conditions: in vivo.
In data set [14] the test system is Mus musculus. Description: Anti-osteoporosis activity in ovariectomized BALB/c mouse at 25 nmol/kg/day, sc assessed as reduction in trabecular bone stiffness. It is filed as functional, organism-based.
The test system of data set [15] is HEK293. Kind of data set: Activation of GIP/GLP2 receptor transfected in human HEK293 cells assessed as increase in intracellular cAMP level at 1 nM. It is filed as cell-based. As to conditions: filed as activator.
Data set [16] in a line: Toxicity in ovariectomized BALB/c mouse assessed as effect on body mass at 25 nmol/kg/day, sc. As to conditions: in vivo.
The nature of data set [17]: Toxicity in ovariectomized BALB/c mouse at 25 nmol/kg, sc assessed as effect on morphological changes in liver. Format: organism-based. As to conditions: in vivo.
The subject of data set [18] is Mus musculus. Description: Anti-osteoporosis activity in ovariectomized BALB/c mouse at 25 nmol/kg/day, sc assessed as increase in ultimate displacement of cortical bone. Format: functional.
The test system of data set [19] is Mus musculus. Description: Anti-osteoporosis activity in ovariectomized BALB/c mouse at 25 nmol/kg, sc assessed as increase in collagen maturity heterogeneity. Format: functional.
Data set [20] deals with MC3T3-E1. Kind of data set: Cytotoxicity against mouse MC3T3-E1 cells at 1 uM measured after 24 hrs by trypan blue assay. As to conditions: mc3t3-e1, 24 h. Format: toxicity, cell-based.
Data set [21] has as its system Mus musculus. Kind of data set: Anti-osteoporosis activity in ovariectomized BALB/c mouse at 25 nmol/kg/day, sc assessed as effect on cortical bone microarchitecture. It is filed as functional, organism-based.
Data set [22] relates to Mus musculus. Kind of data set: Anti-osteoporosis activity in ovariectomized BALB/c mouse at 25 to 100 nmol/kg/day, sc assessed as effect on cortical bone microarchitecture. The note with it: dose 25-100 nmol/kg. It is filed as functional, organism-based.
Data set [23] relates to Mus musculus. Kind of data set: Anti-osteoporosis activity in ovariectomized BALB/c mouse at 100 nmol/kg/day, sc assessed as increase in work-to-fracture of cortical bone. It is filed as functional.
In data set [24] the test system is Mus musculus. Description: Anti-osteoporosis activity in ovariectomized BALB/c mouse at 25 to 100 nmol/kg/day, sc assessed as reduction in trabecular bone stiffness. As to conditions: dose 25-100 nmol/kg. Format: functional, organism-based.
Data set [25] relates to Mus musculus. Description: Anti-osteoporosis activity in ovariectomized BALB/c mouse at 100 nmol/kg/day, sc assessed as increase in ultimate displacement of cortical bone. It is filed as functional.
The subject of data set [26] is Mus musculus. Description: Anti-osteoporosis activity in ovariectomized BALB/c mouse at 100 nmol/kg, sc assessed as decrease in augmented acid phosphate content heterogeneity. It is filed as functional. Further details: scale not given: the % may be the effect or the level left.
The test system of data set [27] is Mus musculus. Description: Anti-osteoporosis activity in ovariectomized BALB/c mouse at 25 nmol/kg, sc assessed as reduction in trabecular spacing. It is filed as functional. Further details: scale not given: the % may be the effect or the level left.
In data set [28] the test system is Mus musculus. Kind of data set: Anti-osteoporosis activity in ovariectomized BALB/c mouse at 100 nmol/kg, sc assessed as decrease in mean phosphate/amide ratio. Format: functional. Further details: scale not given: the % may be the effect or the level left.
For data set [29], the system named is Mus musculus. Description: Anti-osteoporosis activity in ovariectomized BALB/c mouse at 100 nmol/kg/day, sc assessed as increase in post-yield displacement of cortical bone. Format: functional.

In the case of `O.O=P(O)(O)C(O)(Cn1ccnc1)P(=O)(O)O` [ZOLEDRONIC ACID], the Activity in data set [1] was 21%; in data set [2] it was 12%; in [4], 15%; in data set [5] it was “Non-Toxic”. The outcome in data set [3] was inactive. In addition, in [6], the result was Active.
`CC[C@H](C)[C@H](NC(=O)[C@H](CO)NC(=O)[C@H](CCSC)NC(=O)[C@H](CC(=O)O)NC(=O)[C@H](CO)NC(=O)CNC(=O)[C@H](Cc1ccccc1)NC(=O)[C@H](CO)NC(=O)CNC(=O)[C@H](CCC(=O)O)NC(=O)CNC(=O)[C@@H](N)Cc1cnc[nH]1)C(=O)N[C@@H](C)C(=O)N[C@@H](CC(C)C)C(=O)N[C@@H](CC(=O)O)C(=O)N[C@@H](CCCCN)C(=O)N[C@@H](CC(C)C)C(=O)N[C@@H](C)C(=O)N[C@@H](C)C(=O)N[C@@H](CCCNC(=N)N)C(=O)N[C@@H](CC(=O)O)C(=O)N[C@@H](Cc1ccccc1)C(=O)N[C@H](C(=O)N[C@@H](CC(N)=O)C(=O)N[C@@H](Cc1c[nH]c2ccccc12)C(=O)N[C@@H](CC(C)C)C(=O)N[C@@H](CC(C)C)C(=O)N[C@@H](CCC(N)=O)C(=O)N[C@H](C(=O)N[C@@H](CCCCN)C(=O)N[C@H](C(=O)N[C@H](C(=O)N[C@@H](CC(=O)O)C(N)=O)[C@@H](C)O)[C@@H](C)CC)[C@@H](C)O)C(C)C` came in with an IC50 in [7] of 0.0182 nM. For the same compound, the Activity in data set [8] is 37%; in [9], 70%; in data set [10], 6%; in [11], 21%; in data set [12], 10%; in data set [13], “Non-Toxic”. In addition, the Activity result in [16] is recorded as “Non-Toxic”; in [17], “Non-Toxic”; in data set [18], 34%; in data set [19] it was 28%; in data set [20], “Non-Toxic”. In addition, the outcome in data set [14] and in data set [15] was Active. The result in [21] was inactive.
On to `CC[C@H](C)[C@H](NC(=O)[C@H](CO)NC(=O)[C@H](Cc1ccccc1)NC(=O)[C@H](CC(=O)O)NC(=O)[C@H](CO)NC(=O)CNC(=O)[C@H](Cc1ccccc1)NC(=O)[C@H](CO)NC(=O)CNC(=O)[C@H](CCC(=O)O)NC(=O)CNC(=O)[C@@H](N)Cc1cnc[nH]1)C(=O)N[C@@H](C)C(=O)N[C@@H](CC(C)C)C(=O)N[C@@H](CC(=O)O)C(=O)N[C@@H](CCCCN)C(=O)N[C@@H](CC(C)C)C(=O)N[C@@H](C)C(=O)N[C@@H](C)C(=O)N[C@@H](CCCNC(=N)N)C(=O)N[C@@H](CC(=O)O)C(=O)N[C@@H](Cc1ccccc1)C(=O)N[C@H](C(=O)N[C@@H](CC(N)=O)C(=O)N[C@@H](Cc1c[nH]c2ccccc12)C(=O)N[C@@H](CC(C)C)C(=O)N[C@@H](CC(C)C)C(=O)N[C@@H](CCC(N)=O)C(=O)N[C@H](C(=O)N[C@@H](CCCCN)C(N)=O)[C@@H](C)O)C(C)C`, for which the 50% inhibitory concentration (IC50) in data set [7] amounted to 0.036 nM. In addition, the Activity result is “Non-Toxic” in [13]; 33% in data set [23]; 33% in data set [25]; 18% in data set [26]; 17% in data set [27]; “Non-Toxic” in data set [17]. In addition, the Activity turned out to be 5% in data set [28] and 62% in data set [29]. Further, in data set [22], the outcome was inactive. For the same compound, the result in [24] was Active.
